Blank lines part the entries; values can stand above or below the molecule they belong to.
What was measured:
BMPR1A (human) = BMPR1A (human) (UniProt P36894); assay: KINOMEscan competition binding; conditions: compound 1.0 µM
TAOK1 (human) = TAOK1 (human) (UniProt Q7L7X3); assay: KINOMEscan competition binding; conditions: compound 1.0 µM
PDPK1 (human) [1] = biological target: PDPK1 (human) (UniProt O15530); assay: SelectScreen, TR FRET; conditions: compound 1.0 µM
MYLK3 (human) = MYLK3 (human) (UniProt Q32MK0); assay: KINOMEscan competition binding
MYLK3 (human), sequence (Q32MK0 whole entry, looked up): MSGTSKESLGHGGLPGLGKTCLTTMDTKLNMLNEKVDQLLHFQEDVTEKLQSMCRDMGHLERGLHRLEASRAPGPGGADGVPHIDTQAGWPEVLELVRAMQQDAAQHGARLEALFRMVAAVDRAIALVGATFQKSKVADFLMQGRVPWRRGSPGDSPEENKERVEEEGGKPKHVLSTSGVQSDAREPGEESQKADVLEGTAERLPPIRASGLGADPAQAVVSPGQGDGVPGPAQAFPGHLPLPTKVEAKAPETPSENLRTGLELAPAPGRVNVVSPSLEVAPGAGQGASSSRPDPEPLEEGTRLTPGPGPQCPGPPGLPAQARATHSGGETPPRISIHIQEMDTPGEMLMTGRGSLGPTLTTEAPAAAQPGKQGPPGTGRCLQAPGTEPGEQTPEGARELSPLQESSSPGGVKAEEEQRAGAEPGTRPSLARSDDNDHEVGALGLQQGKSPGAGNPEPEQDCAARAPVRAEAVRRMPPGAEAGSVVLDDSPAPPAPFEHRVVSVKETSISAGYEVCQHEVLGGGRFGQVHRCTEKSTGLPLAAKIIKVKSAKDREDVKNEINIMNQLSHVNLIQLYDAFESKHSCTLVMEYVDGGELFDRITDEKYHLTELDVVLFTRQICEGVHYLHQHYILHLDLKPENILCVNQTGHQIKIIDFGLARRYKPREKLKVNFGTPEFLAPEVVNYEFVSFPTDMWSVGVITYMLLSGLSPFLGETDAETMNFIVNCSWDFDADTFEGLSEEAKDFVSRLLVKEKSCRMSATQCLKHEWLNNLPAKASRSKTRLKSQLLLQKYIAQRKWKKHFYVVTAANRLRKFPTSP

CPK1 (P.falciparum) = assay: KINOMEscan competition binding; conditions: compound 10.0 µM
CRK2 (P.falciparum) = CRK2 (P.falciparum) (UniProt P61075); assay: KINOMEscan competition binding; conditions: compound 10.0 µM
TNK2 (human) = TNK2 (human) (UniProt Q07912); assay: KINOMEscan competition binding
TNK2 (human), sequence (Q07912 whole entry, looked up): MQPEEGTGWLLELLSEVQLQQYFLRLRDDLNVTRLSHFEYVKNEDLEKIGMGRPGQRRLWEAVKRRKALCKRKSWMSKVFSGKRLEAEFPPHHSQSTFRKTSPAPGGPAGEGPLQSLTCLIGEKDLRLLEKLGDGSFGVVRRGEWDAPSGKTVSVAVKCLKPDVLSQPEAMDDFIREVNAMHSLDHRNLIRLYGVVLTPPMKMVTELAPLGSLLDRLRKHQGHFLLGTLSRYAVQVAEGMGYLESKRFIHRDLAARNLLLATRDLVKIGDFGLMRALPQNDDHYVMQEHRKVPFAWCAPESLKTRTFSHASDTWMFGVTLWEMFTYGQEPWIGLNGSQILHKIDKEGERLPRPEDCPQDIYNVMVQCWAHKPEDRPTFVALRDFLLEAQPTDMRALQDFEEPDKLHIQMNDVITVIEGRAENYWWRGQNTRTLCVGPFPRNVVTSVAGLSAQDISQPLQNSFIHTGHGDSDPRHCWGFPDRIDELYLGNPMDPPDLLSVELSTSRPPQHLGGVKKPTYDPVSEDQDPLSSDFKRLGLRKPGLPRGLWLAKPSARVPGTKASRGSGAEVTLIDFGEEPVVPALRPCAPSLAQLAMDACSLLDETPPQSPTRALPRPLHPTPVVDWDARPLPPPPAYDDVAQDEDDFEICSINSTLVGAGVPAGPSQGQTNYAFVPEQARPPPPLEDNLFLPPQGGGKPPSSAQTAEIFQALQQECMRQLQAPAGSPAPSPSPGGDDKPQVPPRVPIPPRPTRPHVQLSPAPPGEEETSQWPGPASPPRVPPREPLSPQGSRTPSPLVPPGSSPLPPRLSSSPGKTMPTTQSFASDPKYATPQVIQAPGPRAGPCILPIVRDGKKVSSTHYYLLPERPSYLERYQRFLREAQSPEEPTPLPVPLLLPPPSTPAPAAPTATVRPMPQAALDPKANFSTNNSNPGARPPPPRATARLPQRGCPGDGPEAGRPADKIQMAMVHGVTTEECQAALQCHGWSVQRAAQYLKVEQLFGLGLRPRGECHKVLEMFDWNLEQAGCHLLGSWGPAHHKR

TAOK2 (human) = TAOK2 (human) (UniProt Q9UL54); assay: KINOMEscan competition binding; conditions: compound 10.0 µM
MAP3K12 (human) = MAP3K12 (human) (UniProt Q12852); assay: KINOMEscan competition binding
MAP3K12 (human), sequence (Q12852 whole entry, looked up): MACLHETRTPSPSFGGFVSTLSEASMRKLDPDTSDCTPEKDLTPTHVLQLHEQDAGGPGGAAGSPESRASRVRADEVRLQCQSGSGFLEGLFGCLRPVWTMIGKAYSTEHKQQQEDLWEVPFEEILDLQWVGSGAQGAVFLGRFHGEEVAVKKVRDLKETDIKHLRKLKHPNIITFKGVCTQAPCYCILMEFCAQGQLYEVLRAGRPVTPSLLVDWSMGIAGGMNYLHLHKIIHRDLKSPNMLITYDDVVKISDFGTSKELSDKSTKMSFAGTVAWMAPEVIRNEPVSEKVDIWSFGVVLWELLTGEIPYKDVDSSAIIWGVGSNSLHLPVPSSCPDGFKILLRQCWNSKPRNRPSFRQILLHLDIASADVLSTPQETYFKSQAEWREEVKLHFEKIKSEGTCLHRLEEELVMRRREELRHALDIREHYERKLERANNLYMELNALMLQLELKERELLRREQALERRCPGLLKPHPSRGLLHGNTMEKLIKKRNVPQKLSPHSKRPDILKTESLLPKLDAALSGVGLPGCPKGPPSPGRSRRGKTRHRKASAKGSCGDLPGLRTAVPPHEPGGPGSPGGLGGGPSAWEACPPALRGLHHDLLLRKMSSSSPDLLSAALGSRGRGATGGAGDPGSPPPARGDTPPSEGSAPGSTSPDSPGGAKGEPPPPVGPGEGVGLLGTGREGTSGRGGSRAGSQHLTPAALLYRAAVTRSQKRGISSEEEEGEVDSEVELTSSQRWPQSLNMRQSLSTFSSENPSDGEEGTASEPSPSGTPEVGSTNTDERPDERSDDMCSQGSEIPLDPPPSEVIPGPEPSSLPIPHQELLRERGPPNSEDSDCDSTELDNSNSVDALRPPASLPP

CAMK1G (human) = CAMK1G (human) (UniProt Q96NX5); assay: KINOMEscan competition binding; conditions: compound 10.0 µM
PRKACA (human) [2] = biological target: PRKACA (human) (UniProt P17612); assay: KINOMEscan competition binding
SBK1 (human) = SBK1 (human) (UniProt Q52WX2); assay: KINOMEscan competition binding
CSNK1A1L (human) = CSNK1A1L (human) (UniProt Q8N752); assay: KINOMEscan competition binding
CSNK1A1L (human), sequence (Q8N752 whole entry, looked up): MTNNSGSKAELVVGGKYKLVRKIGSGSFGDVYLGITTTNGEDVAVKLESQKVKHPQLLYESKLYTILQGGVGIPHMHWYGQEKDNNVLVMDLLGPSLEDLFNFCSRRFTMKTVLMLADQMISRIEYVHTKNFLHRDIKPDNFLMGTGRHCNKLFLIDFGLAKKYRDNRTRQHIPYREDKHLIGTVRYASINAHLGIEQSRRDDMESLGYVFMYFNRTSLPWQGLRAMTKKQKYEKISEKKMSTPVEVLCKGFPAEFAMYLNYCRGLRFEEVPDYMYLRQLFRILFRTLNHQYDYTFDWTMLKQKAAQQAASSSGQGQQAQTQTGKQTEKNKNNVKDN

PDPK1 (human) [3] = biological target: PDPK1 (human) (UniProt O15530)
PRKACA (human) [4] = biological target: PRKACA (human) (UniProt P17612)
MAPK9 (human) = MAPK9 (human) (UniProt P45984)
FLT4 (human) = FLT4 (human) (UniProt P35916); assay: SelectScreen, TR FRET; conditions: compound 1.0 µM
FLT4 (human), sequence (P35916 whole entry, looked up): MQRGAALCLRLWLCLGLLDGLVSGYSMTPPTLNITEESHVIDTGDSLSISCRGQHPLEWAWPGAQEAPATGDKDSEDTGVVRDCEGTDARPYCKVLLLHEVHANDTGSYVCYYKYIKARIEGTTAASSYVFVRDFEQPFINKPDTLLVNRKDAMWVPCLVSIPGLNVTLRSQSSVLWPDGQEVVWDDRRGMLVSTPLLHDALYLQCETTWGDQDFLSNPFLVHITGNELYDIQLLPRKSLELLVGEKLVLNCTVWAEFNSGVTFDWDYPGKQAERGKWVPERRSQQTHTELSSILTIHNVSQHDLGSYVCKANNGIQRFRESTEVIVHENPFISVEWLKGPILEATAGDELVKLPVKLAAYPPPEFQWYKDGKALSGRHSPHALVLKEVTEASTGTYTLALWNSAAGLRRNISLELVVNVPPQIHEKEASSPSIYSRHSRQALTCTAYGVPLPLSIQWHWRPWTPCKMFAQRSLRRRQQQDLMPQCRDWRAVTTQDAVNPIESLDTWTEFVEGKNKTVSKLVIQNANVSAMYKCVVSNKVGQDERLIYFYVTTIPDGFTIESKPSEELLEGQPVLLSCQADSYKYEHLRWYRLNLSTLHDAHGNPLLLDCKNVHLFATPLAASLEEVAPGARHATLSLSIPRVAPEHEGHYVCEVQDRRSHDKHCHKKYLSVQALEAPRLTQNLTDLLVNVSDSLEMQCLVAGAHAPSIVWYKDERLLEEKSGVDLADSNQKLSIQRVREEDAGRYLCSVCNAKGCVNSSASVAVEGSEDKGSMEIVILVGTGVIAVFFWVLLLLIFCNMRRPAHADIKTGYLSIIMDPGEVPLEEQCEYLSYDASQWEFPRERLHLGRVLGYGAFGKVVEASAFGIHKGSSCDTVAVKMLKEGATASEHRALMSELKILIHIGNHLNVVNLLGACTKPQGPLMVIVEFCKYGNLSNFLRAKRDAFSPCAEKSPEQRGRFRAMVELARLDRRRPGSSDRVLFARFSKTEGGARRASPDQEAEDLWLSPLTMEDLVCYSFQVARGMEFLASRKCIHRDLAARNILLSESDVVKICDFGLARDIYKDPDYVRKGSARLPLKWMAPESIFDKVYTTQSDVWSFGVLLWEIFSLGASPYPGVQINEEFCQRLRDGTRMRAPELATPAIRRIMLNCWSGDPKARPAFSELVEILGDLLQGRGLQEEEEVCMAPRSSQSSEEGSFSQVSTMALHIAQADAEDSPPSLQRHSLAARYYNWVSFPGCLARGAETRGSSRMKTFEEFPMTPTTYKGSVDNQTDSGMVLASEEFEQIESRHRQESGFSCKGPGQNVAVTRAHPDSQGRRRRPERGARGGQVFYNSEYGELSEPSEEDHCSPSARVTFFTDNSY

AKT1 (human) = AKT1 (human) (UniProt P31749); assay: SelectScreen, TR FRET; conditions: compound 1.0 µM
PDGFRA (human) = PDGFRA (human) (UniProt P16234); assay: SelectScreen, TR FRET; conditions: compound 1.0 µM
CHEK2 (human) = CHEK2 (human) (UniProt O96017); assay: SelectScreen, TR FRET; conditions: compound 1.0 µM
PDGFRB (human) = PDGFRB (human) (UniProt P09619); assay: SelectScreen, TR FRET; conditions: compound 1.0 µM
KDR (human) = KDR (human) (UniProt P35968); assay: SelectScreen, TR FRET; conditions: compound 1.0 µM
EPHA1 (human) = EPHA1 (human) (UniProt P21709); assay: SelectScreen, TR FRET; conditions: compound 1.0 µM
AURKA (human) = AURKA (human) (UniProt O14965); assay: SelectScreen, TR FRET; conditions: compound 1.0 µM

PDPK1 (human), sequence (O15530 whole entry, looked up): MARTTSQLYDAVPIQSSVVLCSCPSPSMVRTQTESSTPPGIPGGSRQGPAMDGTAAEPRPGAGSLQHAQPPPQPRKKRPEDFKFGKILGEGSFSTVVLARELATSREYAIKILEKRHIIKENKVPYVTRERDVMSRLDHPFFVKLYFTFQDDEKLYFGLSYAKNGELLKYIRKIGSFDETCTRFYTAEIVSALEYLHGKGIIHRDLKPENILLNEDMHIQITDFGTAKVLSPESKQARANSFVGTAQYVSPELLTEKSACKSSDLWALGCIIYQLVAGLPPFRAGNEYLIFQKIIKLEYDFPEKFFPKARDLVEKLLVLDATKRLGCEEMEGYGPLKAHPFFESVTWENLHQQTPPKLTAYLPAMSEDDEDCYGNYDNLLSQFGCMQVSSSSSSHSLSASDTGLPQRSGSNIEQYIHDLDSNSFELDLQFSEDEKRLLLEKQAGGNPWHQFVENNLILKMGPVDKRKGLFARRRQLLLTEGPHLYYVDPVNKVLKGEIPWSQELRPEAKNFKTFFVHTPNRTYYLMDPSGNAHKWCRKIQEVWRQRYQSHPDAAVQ

Compound: CC(C)(O)c1ccc(-c2cnc3c(n2)N(CC2CCOCC2)CC(=O)N3)cn1
- residual activity (PDPK1 (human) [1]): 100%

Compound: Cc1c(C(=O)N2CCOc3ccc(-c4ccc(N)nc4)cc3C2)ccc(S(C)(=O)=O)c1F
- IC50 (PDPK1 (human) [3]): > 10 µM
- IC50 (PRKACA (human) [4]): > 10 µM
- IC50 (MAPK9 (human)): > 10 µM

Compound: CC(C)(C)c1cc(NC(=O)NCc2ccc(-c3cc(NC(=O)c4ccc(OCCN5CCOCC5)cc4)[nH]n3)cc2)no1
- inhibition (FLT4 (human)): -86%
- inhibition (AKT1 (human)): -17%
- inhibition (PDGFRA (human)): -85%
- inhibition (CHEK2 (human)): -10%
- inhibition (PDGFRB (human)): -97%
- inhibition (KDR (human)): -99%
- inhibition (EPHA1 (human)): -20%
- inhibition (AURKA (human)): -48%

Now from value to molecule:

- kinase still bound, per cent of control (BMPR1A (human)): 100%
- kinase still bound, per cent of control (TAOK1 (human)): 100%
Compound: Nc1ccccc1Nc1ccc2c(c1)CCc1ccccc1C2=O

- kinase still bound, per cent of control (MYLK3 (human); compound 10.0 µM): 100%
- kinase still bound, per cent of control (CPK1 (P.falciparum)): 100%
- kinase still bound, per cent of control (CRK2 (P.falciparum)): 100%
- kinase still bound, per cent of control (TNK2 (human); compound 10.0 µM): 100%
- kinase still bound, per cent of control (TAOK2 (human)): 100%
- residual activity (MAP3K12 (human); compound 10.0 µM): 100%
- kinase still bound, per cent of control (CAMK1G (human)): 100%
Compound: O=C(Nc1cccnc1)c1cc(-c2ccnc(F)c2)ccc1OCc1ccccc1

- Kd (MYLK3 (human)): > 10 µM
- Kd (PRKACA (human) [2]): > 10 µM
- Kd (SBK1 (human)): > 10 µM
- Kd (TNK2 (human)): 0.015 µM
- Kd (CSNK1A1L (human)): > 10 µM
- Kd (MAP3K12 (human)): > 10 µM
Compound: CO[C@@H]1[C@H](N(C)C(=O)c2ccccc2)C[C@H]2O[C@]1(C)n1c3ccccc3c3c4c(c5c6ccccc6n2c5c31)C(=O)NC4O (some centres not stated)

From the kinase profiling compilation of Christmann-Franck et al. (2016)
